Where two headings read alike, the source gives them in different places.
Assays:
[1] = Rat in vivo pharmacokinetics study after oral administration of product A, B or C; parameters: species or system Male Sprague-Dawley (SD) rats; AUC 0→t in product C group, increased to % compared to that in product A or B groups: concentration or dose not given beside the values; conditions: for AUC(0-t) / AUC(0-inf) / MRT / Tmax / half-life / Cmax: male, Sprague-Dawley, rat, plasma; for AUC(0-t) / AUC(0-inf) / MRT / Tmax / half-life: 10 mL·kg^−1; for AUC(0-t): oral product C group; for AUC(0-inf) / MRT / Tmax / half-life / Cmax: po, 10 mL·kg^−1, rats; for half-life: read-out: T 1/2z; for Cmax: mean±SD; for AUC 0→t in product C group, increased to % compared to that in product A or B groups: product C versus product A or B
Protocol: Product A (extract mixed with FLJ extract and water, (1∶1, v / v )), product B (extract mixed with FF extract and water, (1∶1, v / v )) and product C (extract mixed with FLJ and FF extracts, (1∶1, v / v )) were given to oral administration to rats, respectively.
Male SD rats (∼250 g) were kept in an environmentally controlled breeding room (temperature: 20±2°C, relative humidity: 60±5%) for 1 week. […] The rats were randomly divided into three groups with no less than six rats in each group to receive various administrations at a single oral dose (10 mL·kg^−1) by gastric gavage. […] Subsequently, plasma was prepared by centrifugation at 1,816×g, 4°C for 7 min, and immediately analyzed or stored at −70°C for further analysis.
The main pharmacokinetic parameters including the peak plasma concentration (C max), the time to C max (T max), the AUC from 0 to infinity (AUC 0–∞), the AUC form 0 to time (AUC 0–t), mean residence time (MRT), and terminal elimination half-life (T 1/2z) were calculated by the non-compartmental analysis of plasma concentration vs. time data using the “DAS 2.1.1” software (Mathematical Pharmacology Professional Committee of China, Shanghai, China).

Caco-2 cells = test: In vitro Caco-2 monolayer model, apical to basolateral transport (P app); format: in vitro ADME, human; conditions: Caco-2 monolayer, HBSS pH 6.0, apical to basolateral
Protocol: Caco-2 cells were cultured in high glucose DMEM with 10% fetal bovine serum, 1% nonessential amino acids. Cells were cultured in a humidified atmosphere of 5% CO2 at 37°C. After reaching 80% confluens, Caco-2 cells were harvested with 0.05% trypsin-EDTA solution and seeded on top of CC inserts in 6-well plates, which has a surface area of 4.2 cm^2, at a density of 1.0×10^5 cells/cm^2. The protocols for cell culture in Transwell inserts were similar to those described previously.
Hank’s balanced salt solution (HBSS) was used as the transport buffer for the transport study in Caco-2 cells monolayer model. It was prepared by dissolving 9.5 grams of commercial available HBSS powder in 1000 mL water.
Cell culture experiments were described previously. Briefly, after culture medium was aspirated, the cell monolayers were washed three times with blank HBSS. […] The monolayers were incubated with the blank HBSS for 1 h with 37°C. Thereafter the incubation medium was aspirated. Afterwards, a solution containing the compound was loaded onto the apical side. The amounts of transported compound were measured as a function of time. […] The samples were taken at 0, 1, 2, 3 and 4 h after incubation. At the end of the transport experiment, integrity of the monolayer was monitored by TEER value.

P-gp, MRP2 and BCRP = system: P-gp, MRP2 and BCRP; parameters: method as in PMID 24035225, PMID 25442264; conditions: previous study; ref [21]–[22]; cited from earlier work
[2] = single oral dose 10 mL·kg^−1 of product B (FF extract and water 1:1)
[3] = single oral dose 10 mL·kg^−1 of product C (FLJ and FF extracts 1:1)
[4] = single oral dose 10 mL·kg^−1 of product A (FLJ extract and water 1:1)

AUC(0-t) ([1]; rats) [ng·h/mL]	AUC(0-inf) ([1]; oral product C) [ng·h/mL]	MRT ([1]; oral product C) [h]	Tmax ([1]; oral product C) [h]	half-life ([1]; oral product C) [h]	Cmax [1, 3] [ng/mL]	AUC 0→t in product C group, increased to % compared to that in product A or B groups ([1]; rats, oral) [%]	AUC(0-inf) ([1]; oral product A) [ng·h/mL]	MRT ([1]; oral product A) [h]	half-life ([1]; oral product A) [h]	Cmax [1, 4] [ng/mL]	P app in product C group, % compared to that in product A group (Caco-2 cells) [%]	Tmax ([1]; oral product A) [h]	Structure (SMILES)	efflux transporters influencing the intestinal absorption (P-gp, MRP2 and BCRP)	further results
420	773	7.53	0.167	5.98 ± 0.357	182 ± 38.6	230	–	–	–	–	–	–	C[C@@H]1O[C@@H](OC[C@H]2O[C@@H](OCCc3ccc(O)c(O)c3)[C@H](O)[C@@H](O)[C@@H]2OC(=O)/C=C/c2ccc(O)c(O)c2)[C@H](O)[C@H](O)[C@H]1O [Forsythoside A]	affected by P-gp and MRP2, not BCRP	AUC(0-inf) ([1]; oral product B): 229 ng·h/mL; MRT ([1]; oral product B): 3.75 h; Tmax ([1]; oral product B): 0.167 h; half-life ([1]; oral product B): 4.6 ± 1.04 h; Cmax [1, 2]: 102 ± 6.19 ng/mL; P app in product C group, % compared with that in product B group (Caco-2 cells): 165%
82.4	89.7	9.63	0.167	7.33 ± 0.79	30.8 ± 5.66	162	71.5	7.3	4.87 ± 1.29	27.6 ± 4.73	164	–	O=C(/C=C/c1ccc(O)c(O)c1)O[C@@H]1C[C@](O)(C(=O)O)C[C@@H](OC(=O)/C=C/c2ccc(O)c(O)c2)[C@H]1O [3,5-dicaffeoylquinic acid]	influenced by P-gp, MRP2 and BCRP	–
24.4	38.8	8.95	0.2	6.82 ± 2.38	12.5 ± 4.07	318	22.9	7.03	4.92 ± 0.617	4.79 ± 1.87	137	0.25	O=C(C=Cc1ccc(O)c(O)c1)OC1CC(O)(C(=O)O)CC(O)C1OC(=O)C=Cc1ccc(O)c(O)c1 (stereo not drawn) [3,4-dicaffeoylquinic acid]	influenced by P-gp, MRP2 and BCRP	–
1270	–	8.28	0.167	7.68 ± 0.535	661 ± 294	215	707	5.78	5.37 ± 0.733	367 ± 169	140	0.167	O=C(/C=C/c1ccc(O)c(O)c1)O[C@@H]1C[C@](O)(C(=O)O)C[C@@H](O)[C@H]1O [Chlorogenic acid]	influenced by P-gp, MRP2 and BCRP	–
321	351	7.55	0.167	4.65 ± 0.287	449 ± 22.8	235	196	5.55	1.73 ± 0.782	352 ± 29.4	133	0.167	O=C(/C=C/c1ccc(O)c(O)c1)O[C@H]1[C@H](O)C[C@](O)(C(=O)O)C[C@H]1O [Cryptochlorogenic acid]	influenced by P-gp, MRP2 and BCRP	–
259	404	6.45	0.167	8.58 ± 0.467	181 ± 65	286	138	5.37	7.63 ± 0.637	75.7 ± 30.1	136	0.167	O=C(/C=C/c1ccc(O)c(O)c1)O[C@@H]1C[C@@](O)(C(=O)O)C[C@@H](O)[C@@H]1O [Neochlorogenic acid]	influenced by P-gp, MRP2 and BCRP	–
108	140	7.83	0.267	7.33 ± 0.273	54.7 ± 8.63	121	92.9	5.82	2.07 ± 0.205	28 ± 4.93	211	0.35	COC(=O)C1=CO[C@@H](O[C@@H]2O[C@H](CO)[C@@H](O)[C@H](O)[C@H]2O)[C@@H]2[C@@H](C)[C@@H](O)C[C@H]12 [Loganin]	–	–
–	46.9	4.67	0.167	4.42 ± 0.262	19.5 ± 5.43	–	88.3	5.78	7.05 ± 0.943	44.9 ± 19.8	240	0.167	O=c1cc(-c2ccc(O)c(O)c2)oc2cc(O)cc(O)c12 [Luteolin]	–	AUC 0→t in product C group compared with product A or B group ([1]; rats, oral, same dosages administrated): lower significantly

Structure (SMILES)	AUC(0-t) ([1]; rats) [ng·h/mL]	AUC(0-inf) ([1]; oral product C) [ng·h/mL]	MRT ([1]; oral product C) [h]	Tmax ([1]; oral product C) [h]	half-life ([1]; oral product C) [h]	Cmax [1, 3] [ng/mL]	AUC 0→t in product C group, increased to % compared to that in product A or B groups ([1]; rats, oral) [%]	AUC(0-inf) ([1]; oral product A) [ng·h/mL]	MRT ([1]; oral product A) [h]	half-life ([1]; oral product A) [h]	Cmax [1, 4] [ng/mL]	P app in product C group, % compared to that in product A group (Caco-2 cells) [%]	Tmax ([1]; oral product A) [h]	efflux transporters influencing the intestinal absorption (P-gp, MRP2 and BCRP)	further results
O=c1c(O[C@@H]2O[C@H](CO)[C@@H](O)[C@H](O)[C@H]2O)c(-c2ccc(O)c(O)c2)oc2cc(O)cc(O)c12 [Isoquercitrin]	–	5.51	9.25	0.267	7.58 ± 0.868	1 ± 0.3	–	2.63	9.28	7.27 ± 0.438	0.504 ± 0.351	169	0.167	–	AUC(0-inf) ([1]; oral product B): 3.25 ng·h/mL; MRT ([1]; oral product B): 8.3 h; Tmax ([1]; oral product B): 0.333 h; half-life ([1]; oral product B): 7.85 ± 0.515 h; Cmax [1, 2]: 0.619 ± 0.212 ng/mL; bioavailability in product C group compared with that in product A group ([1]; rats, oral): no significantly different; bioavailability in product C group compared with that in product B group ([1]; rats, oral): no significantly different; P app in product C group, % compared with that in product B group (Caco-2 cells): 234%

Source: PMC4183595, “Study on the Main Components Interaction from Flos Lonicerae and Fructus Forsythiae and Their Dissolution In Vitro and Intestinal Absorption in Rats” (PLoS ONE, 2014)
